This is an account of results in US20240174671A1, “New 2,3-Dihydro-1H-pyrrolo[3,2-b]pyridine Derivatives as Sigma Ligands” (ACONDICIONAMIENTO TARRASENSE, priority 2021, published 2024).

For orientation: Ki means the equilibrium dissociation constant of an inhibitor or competing ligand from its target.

One assay deals with T1, human σ1 receptor (Homo sapiens, UniProt Q99720).
T1 construct: expressed in transfected cells; host or cells: HEK-293
Kind of assay: Human σ1 receptor radioligand assay ([3H](+)-pentazocine). It is filed as binding. The method, boiled down:
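Binding used [3H](+)-pentazocine, 120 min at 37° C, with non-specific binding defined by 10 μM haloperidol. Bound radioligand was collected by filtration, washed with ice-cold 10 mM Tris-HCl pH 7.4 and counted by scintillation.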

The next assay has as its target T2, human σ2/TMEM97 receptor (Homo sapiens, UniProt Q5BJF2).
T2 construct: expressed in transfected cells; host or cells: HEK-293
Put plainly: Binding assay to human σ2/TMEM97 receptor ([3H]-DTG). To be noted: transfected HEK-293 membranes, 10 nM [3H]-DTG, 25° C., 120 minutes; read-out: Binding σ-[…] (binding to σ2-receptor expressed as Ki). The gist of the method: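 Membranes from transfected HEK-293 cells incubated with 10 nM [3H]-DTG in 50 mM Tris-HCl pH 8.0, 120 min at 25 °C; non-specific binding defined with 10 μM haloperidol. Bound radioactivity counted after filtration; compounds tested as % inhibition at 1 or 10 μM or at five concentrations for Ki.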

[1] abbreviates: transfected HEK-293 membranes, 5 nM [3H](+)-pentazocine, 37° C., 120 minutes, read-out: Binding σ-[…] (binding to σ1-receptor expressed as Ki).

Structures can show the parent of a compound that is named as a salt. Where two headings read alike, the source gives them in different places.

T1 sequence (Q99720 whole entry): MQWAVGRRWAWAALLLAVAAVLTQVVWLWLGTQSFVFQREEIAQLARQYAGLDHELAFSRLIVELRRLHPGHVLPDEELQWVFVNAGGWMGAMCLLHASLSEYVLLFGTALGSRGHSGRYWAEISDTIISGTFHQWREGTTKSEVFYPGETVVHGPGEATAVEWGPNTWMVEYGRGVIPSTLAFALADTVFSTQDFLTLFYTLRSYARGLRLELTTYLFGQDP
T2 sequence (Q5BJF2 whole entry): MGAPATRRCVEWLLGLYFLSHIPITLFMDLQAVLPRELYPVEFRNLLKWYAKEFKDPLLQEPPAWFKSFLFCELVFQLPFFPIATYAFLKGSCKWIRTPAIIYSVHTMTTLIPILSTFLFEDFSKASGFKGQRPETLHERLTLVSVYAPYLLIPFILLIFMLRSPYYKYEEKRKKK

With `COc1ccc(CN2CCC3(CC2)CCN(C(=O)N2CC(C)(C)c4nc(C)ccc42)C3)cc1` [Example 103, (8-(4-methoxybenzyl)-2,8-diazaspiro[4.5]decan-2-yl)(3,3,5-trimethyl-2,3-dihydro-1H-pyrrolo[3,2-b]pyridin-1-yl)methanone], the Ki on human σ1 receptor (setting [1]) is 100 to 500 nM; on human σ2/TMEM97 receptor, under 100 nM.
On to `CC1(C)CN(C(=O)NC2CC3(CCN(Cc4ccccc4)CC3)C2)c2cccnc21` [Example 104, N-(7-benzyl-7-azaspiro[3.5]nonan-2-yl)-3,3-dimethyl-2,3-dihydro-1H-pyrrolo[3,2-b]pyridine-1-carboxamide], for which the Ki on human σ1 receptor (setting [1]) and on human σ2/TMEM97 receptor was 100 to 500 nM throughout.
As to `Cc1ccc2c(n1)C(C)(C)CN2C(=O)N1CCC2(CCN(CC3CCOCC3)CC2)C1` [Example 105, (8-((tetrahydro-2H-pyran-4-yl)methyl)-2,8-diazaspiro[4.5]decan-2-yl)(3,3,5-trimethyl-2,3-dihydro-1H-pyrrolo[3,2-t]pyridin-1-yl)methanone], the Ki at human σ1 receptor (setting [1]) was 500 to 1000 nM; on human σ2/TMEM97 receptor it was under 100 nM.
Taken in the same sequence, the figures for `CC(C)CCN1CCC(CNC(=O)N2CC(C)(C)c3ncccc32)CC1` [Example 106, N-((1-isopentylpiperidin-4-yl)methyl)-3,3-dimethyl-2,3-dihydro-1H-pyrrolo[3,2-b]pyridine-1-carboxamide] were 500 to 1000 nM and 100 to 500 nM.
The like results for `Cc1ccc2c(n1)C(C)(C)CN2C(=O)N1CCC2(CCN(Cc3ccc(F)c(C#N)c3)CC2)C1` [Example 107, 2-fluoro-5-((2-(3,3,5-trimethyl-2,3-dihydro-1H-pyrrolo[3,2-b]pyridine-1-carbonyl)-2,8-diazaspiro[4.5]decan-8-yl)methyl)benzonitrile] were, in that order, over 1000 nM and under 100 nM.
The like results for `Cc1ccc2c(n1)C(C)(C)CN2C(=O)N1CCC2(CCN(CCC3CCOCC3)CC2)C1` [Example 108, (8-(2-(tetrahydro-2H-pyran-4-yl)ethyl)-2,8-diazaspiro[4.5]decan-2-yl)(3,3,5-trimethyl-2,3-dihydro-1H-pyrrolo[3,2-t]pyridin-1-yl)methanone] were, in that order, over 1000 nM and under 100 nM.
With `CC(C)(C)CCN1CCC(CNC(=O)N2CC(C)(C)c3ncccc32)CC1` [Example 109, N-((1-(3,3-dimethylbutyl)piperidin-4-yl)methyl)-3,3-dimethyl-2,3-dihydro-1H-pyrrolo[3,2-b]pyridine-1-carboxamide], the Ki on human σ1 receptor (setting [1]) is 100 to 500 nM; on human σ2/TMEM97 receptor, under 100 nM.
Take `Cc1ccc2c(n1)C(C)(C)CN2C(=O)N1CCC2(CCN(C3CCOCC3)CC2)C1` [Example 110, (8-(tetrahydro-2H-pyran-4-yl)-2,8-diazaspiro[4.5]decan-2-yl)(3,3,5-trimethyl-2,3-dihydro-1H-pyrrolo[3,2-b]pyridin-1-yl)methanone]: the inhibitory constant (Ki) on human σ1 receptor (setting [1]) was over 1000 nM; at human σ2/TMEM97 receptor, under 100 nM.
Taken in the same sequence, the figures for `CN[C@H](CNC(=O)N1CC(C)(C)c2nc(C)ccc21)c1ccccc1` [Example 111, (S)-3,3,5-trimethyl-N-(2-(methylamino)-2-phenylethyl)-2,3-dihydro-1H-pyrrolo[3,2-b]pyridine-1-carboxamide] were 100 to 500 nM and over 1000 nM.
For `CN[C@@H](CNC(=O)N1CC(C)(C)c2nc(C)ccc21)c1ccccc1` [Example 112, (R)-3,3,5-trimethyl-N-(2-(methylamino)-2-phenylethyl)-2,3-dihydro-1H-pyrrolo[3,2-b]pyridine-1-carboxamide], the Ki on human σ1 receptor (setting [1]) is 100 to 500 nM; at human σ2/TMEM97 receptor, over 1000 nM.
Turning to `CCN[C@@H](CNC(=O)N1CC(C)(C)c2nc(C)ccc21)c1ccccc1` [Example 113, (R)—N-(2-(ethylamino)-2-phenylethyl)-3,3,5-trimethyl-2,3-dihydro-1H-pyrrolo[3,2-b]pyridine-1-carboxamide], the Ki was 100 to 500 nM on human σ1 receptor and over 1000 nM on human σ2/TMEM97 receptor.
As for `Cc1ccc2c(n1)C(C)(C)CN2C(=O)N1CCC(N(C)Cc2ccc(F)cc2)CC1` [Example 114, (4-((4-fluorobenzyl)(methyl)amino)piperidin-1-yl)(3,3,5-trimethyl-2,3-dihydro-1H-pyrrolo[3,2-b]pyridin-1-yl)methanone], the Ki on human σ1 receptor (setting [1]) is 100 to 500 nM; on human σ2/TMEM97 receptor, under 100 nM.
Taken in the same sequence, the figures for `Cc1ccc2c(n1)C(C)(C)CN2C(=O)N1CCC(NCc2ccccc2)CC1` [Example 115, (4-(benzylamino)piperidin-1-yl)(3,3,5-trimethyl-2,3-dihydro-1H-pyrrolo[3,2-b]pyridin-1-yl)methanone] were over 1000 nM and 100 to 500 nM.
Taken in the same sequence, the figures for `Cc1ccc2c(n1)C(C)(C)CN2C(=O)N1CCC(N(C)Cc2cccc(F)c2)CC1` [Example 116, (4-((3-fluorobenzyl)(methyl)amino)piperidin-1-yl)(3,3,5-trimethyl-2,3-dihydro-1H-pyrrolo[3,2-b]pyridin-1-yl)methanone] were 500 to 1000 nM and under 100 nM.
In the case of `Cc1ccc2c(n1)C(C)(C)CN2C(=O)N1CCC(N(C)Cc2ccc(C#N)cc2)CC1` [Example 117, 4-((methyl(1-(3,3,5-trimethyl-2,3-dihydro-1H-pyrrolo[3,2-t]pyridine-1-carbonyl)piperidin-4-yl)amino)methyl)benzonitrile], the figures for the inhibitory constant (Ki) at human σ1 receptor (setting [1]) and at human σ2/TMEM97 receptor were 100 to 500 nM and under 100 nM, respectively.
Taken in the same sequence, the figures for `Cc1ccc2c(n1)C(C)(C)CN2C(=O)N1CCC(N(C)Cc2cccc(C#N)c2)CC1` [Example 118, 3-((methyl(1-(3,3,5-trimethyl-2,3-dihydro-1H-pyrrolo[3,2-t]pyridine-1-carbonyl)piperidin-4-yl)amino)methyl)benzonitrile] were over 1000 nM and under 100 nM.
The like results for `Cc1ccc2c(n1)C(C)(C)CN2C(=O)N1CCC(N(C)CC(C)C)CC1` [Example 119, (4-(isobutyl(methyl)amino)piperidin-1-yl)(3,3,5-trimethyl-2,3-dihydro-1H-pyrrolo[3,2-b]pyridin-1-yl)methanone] were, in that order, 100 to 500 nM and 100 to 500 nM.
Take `Cc1ccc2c(n1)C(C)(C)CN2C(=O)N1CCCCC(NCCC(C)C)C1` (centres unmarked) [Example 120, (3-(Isopentylamino)azepan-1-yl)(3,3,5-trimethyl-2,3-dihydro-1H-pyrrolo[3,2-t]pyridin-1-yl)methanone]: the Ki is 500 to 1000 nM on human σ1 receptor (setting [1]) and under 100 nM on human σ2/TMEM97 receptor.
The like results for `CC(C)CCN[C@H]1CCCCN(C(=O)N2CCc3ncccc32)C1` [Example 121, (S)-(2,3-dihydro-1H-pyrrolo[3,2-b]pyridin-1-yl)(3-(isopentylamino)azepan-1-yl)methanone] were, in that order, 100 to 500 nM and 100 to 500 nM.
The like results for `CC(C)CCN(C)[C@H]1CCCCN(C(=O)N2CCc3ncccc32)C1` [Example 122, (S)-(2,3-dihydro-1H-pyrrolo[3,2-b]pyridin-1-yl)(3-(isopentyl(methyl)amino)azepan-1-yl)methanone] were, in that order, under 100 nM and 100 to 500 nM.
Taken in the same sequence, the figures for `Cc1ccc2c(n1)C(C)(C)CN2C(=O)C1CCN(Cc2ccccc2)CC1` [Example 123, (1-benzylpiperidin-4-yl)(3,3,5-trimethyl-2,3-dihydro-1H-pyrrolo[3,2-b]pyridin-1-yl)methanone] were under 100 nM and 500 to 1000 nM.
In the case of `Cc1ccc2c(n1)C(C)(C)CN2C(=O)[C@@H]1CN(Cc2ccccc2)C[C@H]1C` [Example 124, ((3S,4S)-1-benzyl-4-methylpyrrolidin-3-yl)(3,3,5-trimethyl-2,3-dihydro-1H-pyrrolo[3,2-b]pyridin-1-yl)methanone], the Ki at human σ1 receptor (setting [1]) is under 100 nM; on human σ2/TMEM97 receptor, over 1000 nM.
Taken in the same sequence, the figures for `Cc1ccc2c(n1)C(C)(C)CN2C(=O)[C@H]1CN(Cc2ccccc2)C[C@@H]1C` [Example 125, ((3R,4R)-1-benzyl-4-methylpyrrolidin-3-yl)(3,3,5-trimethyl-2,3-dihydro-1H-pyrrolo[3,2-b]pyridin-1-yl)methanone] were under 100 nM and 100 to 500 nM.
Taken in the same sequence, the figures for `Cc1ccc2c(n1)C(C)(C)CN2C(=O)[C@H]1CC[C@@H](N(C)Cc2ccccc2)CC1` [Example 126, ((1s,4s)-4-(benzyl(methyl)amino)cyclohexyl)(3,3,5-trimethyl-2,3-dihydro-1H-pyrrolo[3,2-b]pyridin-1-yl)methanone] were under 100 nM and under 100 nM.
The like results for `CN(Cc1ccccc1)[C@H]1CC[C@@H](C(=O)N2CC(C)(C)c3ncccc32)CC1` [Example 127, ((1s,4s)-4-(benzyl(methyl)amino)cyclohexyl)(3,3-dimethyl-2,3-dihydro-1H-pyrrolo[3,2-b]pyridin-1-yl)methanone] were, in that order, under 100 nM and under 100 nM.
Consider `CC1(C)CN(C(=O)[C@H]2CC[C@H](NCc3ccccc3)CC2)c2cccnc21` [Example 128, ((1r,4r)-4-(benzylamino)cyclohexyl)(3,3-dimethyl-2,3-dihydro-1H-pyrrolo[3,2-b]pyridin-1-yl)methanone dihydrochloride], for which the inhibition constant Ki at human σ1 receptor (setting [1]) was under 100 nM; on human σ2/TMEM97 receptor, 100 to 500 nM.
Taken in the same sequence, the figures for `Cc1ccc2c(n1)C(C)(C)CN2C(=O)CC1CCN(Cc2ccccc2)CC1` [Example 130, 2-(1-benzylpiperidin-4-yl)-1-(3,3,5-trimethyl-2,3-dihydro-1H-pyrrolo[3,2-b]pyridin-1-yl)ethanone] were under 100 nM and 100 to 500 nM.
The like results for `Cc1ccc2c(n1)C(C)(C)CN2C(=O)C1CN(Cc2ccccc2)C1` [Example 131, (1-benzylazetidin-3-yl)(3,3,5-trimethyl-2,3-dihydro-1H-pyrrolo[3,2-b]pyridin-1-yl)methanone] were, in that order, under 100 nM and over 1000 nM.
